Laboratory results reported in patent US10328080B2, “Therapeutic combination of PI3K inhibitor and a BTK inhibitor” (Acerta Pharma B.V., priority 2013, dated 2019).

Experiments:
[1] = system: human platelet-mediated thrombosis; test: In vivo human thrombus formation in the VWF HA1 mice model (laser injury); settings: human platelets preincubated with BTK inhibitor (0.1, 0.5 or 1 μM) 30 min; laser-induced injury in VWF HA1 mice
Experimental: Purified human platelets were preincubated with various concentrations of the BTK inhibitors (0.1 μM, 0.5 μM, or 1 μM) or DMSO and then administered to VWF HA1 mice, followed by laser-induced thrombus formation.
The objective of this study was to evaluate in vivo thrombus formation in the presence of BTK inhibitors.

human platelets, GPVI = test: GPVI platelet aggregation (Convulxin-induced); assay type: cell-based; settings: CVX-induced, FIG. 56 and FIG. 57
Experimental: GPVI platelet aggregation was measured for Formula (XVIII) and Formula XX-A (ibrutinib). Blood was obtained from untreated humans, and platelets were purified from […] by centrifugation. Cells were resuspended to a final concentration of […] in buffer containing 145 mmol/L NaCl, 10 mmol/L HEPES, 0.5 mmol/L Na2HPO4, 5 mmol/L KCl, 2 mmol/L MgCl2, 1 mmol/L CaCl2, and 0.1% glucose, at pH 7.4. Stock solutions of […] were prepared on the day of experimentation and added to platelet suspensions 5 minutes (37° C., 1200 rpm) before the induction of aggregation. Aggregation was assessed with a Chronolog Lumi-Aggregometer (model 540 VS; Chronolog, Havertown, Pa.) and permitted to proceed for 6 minutes after the addition of agonist. The results are reported as maximum percent change in light transmittance from baseline with platelet buffer used as a reference.
In FIG. 57, the results of CVX-induced (250 ng/mL) human platelet aggregation results before and 15 min after administration of the BTK inhibitors to 6 healthy individuals are shown.

canine B cell lymphoma = test: Veterinary clinical trial in companion dogs with lymphoma; assay type: in vivo; settings: Arm 1 monotherapy, Arm 2 combination
Experimental: Enrollment has completed for Arm 1 and is ongoing for Arm 2.
Intra-subject dose escalation was allowed. Six of the 11 dogs that initiated at 2.5 or 5 mg/kg once daily were escalated and completed the study with dosages of 10 mg/kg twice daily. Among all the dose cohorts, 8 dogs had shrinkage of target lesions >20%; the best tumor responses were between 45-49% reduction in the sum of target lesions in two dogs.

ID8 ovarian cancer = test: ID8 syngeneic orthotropic ovarian cancer murine model; assay type: in vivo, mice; settings: 15 mg/kg/BID given orally
Source text: Human ovarian cancer models, including the ID8 syngeneic orthotropic ovarian cancer model and other animal models, are described in Fong and Kakar, J. Ovarian Res. 2009, 2, 12; Greenaway et al., Gynecol. Oncol. 2008, 108, 385-94; Urzua et al., Tumour Biol. 2005, 26, 236-44; Janat-Amsbury et al., Anticancer Res. 2006, 26, 3223-28; Janat-Amsbury et al., Anticancer Res. 2006, 26, 2785-89. […] The results of the study are shown in FIG. 42, FIG. 43, FIG. 44, FIG. 45, FIG. 46, FIG. 47, FIG. 48, and FIG. 49.

[2] = system: KPC derived mouse pancreatic cancer cells; test: KPC derived mouse pancreatic cancer model, tumor infiltrating MDSCs and TAMs; assay type: in vivo; settings: 15 mg/kg/BID given orally
Experimental: In this study, KPC derived mouse pancreatic cancer cells (KrasG12D;Trp53R^872H;Pdx1-Cre) were injected into the pancreases.
Single cell suspensions from tumor samples. Mouse tumor tissue was collected and stored in PBS/0.1% soybean trypsin inhibitor prior to enzymatic dissociation. Samples were finely minced with a scissors and mouse tissue was transferred into DMEM containing 1.0 mg/ml collagenase IV (Gibco), 0.1% soybean trypsin inhibitor, and 50 U/ml DNase (Roche) and incubated at 37 C for 30 min. with constant stirring while human tissue was digested in 2.0 mg/ml collagenase IV, 1.0 mg/ml hyluronidase, 0.1% soybean trypsin inhibitor, and 50 U/ml DNase for 45 minutes. Suspensions were filtered through a 100 micron filter and washed with FACS buffer (PBS/0.5% BSA/2.0 mM EDTA) prior to staining. Two million total cells were stained with antibodies as indicated. Intracellular detection of FoxP3 was achieved following permeabilization with BD Perm Buffer III (BD Biosciences) and eBioscience Fix/Perm respectively. Following surface staining, samples were acquired on a BD Fortessa and analyzed using FlowJo (Treestar) software.

[3] = system: pancreatic tumor-bearing mice; test: Orthotopic pancreatic cancer model (KPC cells in C57BL/6 mice); assay type: in vivo; settings: aggressive orthotopic PDA model, 15 mg/kg oral of each drug
Experimental: Cell line derived from KrasG12D;Trp53R^872H;Pdx1-Cre (KPC) mice were orthotopically implanted into the head of the pancreas after 35 passages. Based on the mice background from where the cell lines were generated, 1×10^6 cells were injected in C57BL/6 mice. Throughout the experiment, animals were provided with food and water ad libitum and subjected to a 12-h dark/light cycle. Animal studies were performed in accordance with the U.S. Public Health Service “Guidelines for the Care and Use of Laboratory Animals” (IACUC). After euthanization, pancreatic tumors were dissected out, weighed and single cell suspensions were prepared for flow cytometry analysis.

| Structure (SMILES) | Effect on human platelet-mediated thrombus formation [1] | Inhibition of GPVI platelet aggregation (human platelets, GPVI) | Complete responses (CR) (canine B cell lymphoma) | Median time on study (all subjects) (canine B cell lymphoma; preliminary) [days] | CD8+ T cells (ID8 ovarian cancer; tumor-bearing mice) | Immunosuppressive tumor associated Tregs (ID8 ovarian cancer; tumor-bearing mice) | Immunosuppressive tumor-associated lymphocytes (ID8 ovarian cancer; tumor-bearing mice) | Immunosuppressive B cells (ID8 ovarian cancer; tumor-bearing mice, total B cells and Bregs) | ID8 ovarian cancer growth (ID8 ovarian cancer; vs vehicle) | Tumor burden [2] | Tumor burden [3] | Immature myeloid infiltrate ([3]; flow cytometry) | Number of immunosuppressive Tregs ([3]; flow cytometry) | Number of tumor associated macrophages ([3]; flow cytometry) |
| --- | --- | --- | --- | --- | --- | --- | --- | --- | --- | --- | --- | --- | --- | --- |
| C=CC(=O)Nc1cccc(Nc2nc(Nc3ccc(OCCOC)cc3)ncc2F)c1 [Formula XXVII, N-(3-((5-fluoro-2-((4-(2-methoxyethoxy)phenyl)amino)pyrimidin-4-yl)amino)phenyl)acrylamide] | effect similar to Formula XX-A (ibrutinib) |  |  |  |  |  |  |  |  |  |  |  |  |  |
| C=CC(=O)N1CCC[C@@H](n2nc(-c3ccc(Oc4ccccc4)cc3)c3c(N)ncnc32)C1 [Formula XX-A, 1-[(3R)-3-[4-amino-3-(4-phenoxyphenyl)-1H-pyrazolo[3,4-d]pyrimidin-1-yl]piperidin-1-yl]prop-2-en-1-one, reference compound] | able to limit this process | significantly inhibits |  |  |  |  |  |  |  |  |  |  |  |  |
| CC#CC(=O)N1CCC[C@H]1c1nc(-c2ccc(C(=O)Nc3ccccn3)cc2)c2c(N)nccn12 [Formula (XVIII), (S)-4-(8-amino-3-(1-(but-2-ynoyl)pyrrolidin-2-yl)imidazo[1,5-a]pyrazin-1-yl)-N-(pyridin-2-yl)benzamide] |  | does not | not observed | 24 | increase | significant reduction | significant reduction | significant reduction | impairs | reduction | significantly reduced | decreased | reduced | reduced |
